The text below walks through data of patent US20240247252A1, “NOVEL COMPOUNDS FOR THE DEVELOPMENT OF REVERSIBLE COVALENT DRUGS” (The Trustees of Boston College, priority 2023, published 2024).

For experiment [1], the target named is T1, sortase A (SrtA) (Staphylococcus aureus, UniProt Q2FV99). The experiment can be described thus: biochemical. The experiment is classed as binding. As to the method: For peptide conjugation, a —COOH derivative of RMR1 and 2-APBA was synthesized respectively. […] The resulting peptides were assessed for SrtA binding through a fluorescence polarization-based competition assay, in which a fluorophore labeled W7 (W7-F) was used as a reporter.
T1 sequence (Q2FV99 whole entry): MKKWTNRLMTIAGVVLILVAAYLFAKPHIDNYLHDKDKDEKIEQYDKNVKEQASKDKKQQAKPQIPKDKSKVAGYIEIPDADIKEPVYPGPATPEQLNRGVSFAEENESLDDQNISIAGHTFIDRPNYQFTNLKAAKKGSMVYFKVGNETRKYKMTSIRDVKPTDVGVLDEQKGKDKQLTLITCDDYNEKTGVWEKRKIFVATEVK

Experiment [2] deals with T1, sortase A (SrtA). The experiment in a line: SrtA binding kinetics, competition assay using W7-F as fluorescence reporter. On the procedure:
FIG. 1 illustrates reversible covalent inhibition of SrtA. […] The peptide's termini and the proximal lysine residues are labeled with the lysine ε-amines colored blue. […] FIG. 1(d) and FIG. 1(e) show SrtA binding kinetics of P3 and P5 recorded via a competition assay using W7-F as a fluorescence reporter.
Kinetic characterization of the P5-SrtA binding yielded a kon of 6.3 M^−1 s^−1, which is ˜300 times faster than the RMR1-lysine conjugation. The koff was determined to be 8.2×10^−6 s^−1, 4 times slower than the RMR1-lysine conjugation. The faster on-rate and slower off-rate are expected for the cooperative action between the covalent warhead and the W7 peptide that binds SrtA noncovalently.

The test system of experiment [3] is SrtA on live S. aureus cells. The experiment can be described thus: SrtA inhibition on live S. aureus cells, labeling by fluorescent SrtA substrate FAM-GSLPETGGS, flow cytometry. It is filed as cell-based, Staphylococcus aureus. The following applies: live S. aureus in LB media, read-out: IC50 of SrtA-mediated fluorescence labeling. On the procedure:
The peptides for SrtA inhibition on live S. aureus cells was further tested. A fluorescently labeled SrtA substrate (FAM-GSLPETGGS) was mixed with S. aureus in LB media with or without a peptide inhibitor. The SrtA-mediated bacterial labeling was assessed using fluorescence microscopy and flow cytometry.
For orientation: Flow cytometry measures light scatter and fluorescence of single cells or particles in a stream.

In experiment [4] the test system is SrtA on live S. aureus cells. The experiment can be described thus: Long-lasting SrtA inhibition on S. aureus cells after washing away unbound inhibitor. The experiment is classed as cell-based, Staphylococcus aureus. As to conditions: unbound inhibitor washed away before substrate added, flow cytometry after 6 hours of incubation. On the procedure: To test this hypothesis, the S. aureus cells was treated with P5 and then the unbound inhibitor was washed away before the fluorescent SrtA substrate was added. The S. aureus cells were subjected to flow cytometry analysis after 6 hours of incubation.

Structures are written as SMILES. Positions of bridges follow the written chain, without caps; N, C: chain ends. Non-standard residues stand in square brackets, D forms with d. Residues, ends and D or L forms follow the SMILES beside them. *: point of attachment. X1 = O=Cc1ccccc1NCc1cc(C(=O)*)ccc1B(O)O; X2 = CC(=O)c1ccc(OCC(=O)*)cc1B(O)O; Dap = NC[C@H](N)C(=O)O

As for `CC[C@H](C)[C@@H]1NC(=O)[C@H](CC(C)C)NC(=O)[C@@H](NC(=O)[C@H](C)NC(C)=O)CSSC[C@@H](C(=O)NCC(=O)NCC(=O)NCC(=O)N[C@@H](CNC(=O)c2ccc(B(O)O)c(CNc3ccccc3C=O)c2)C(N)=O)NC(=O)CNC(=O)CNC(=O)[C@H](Cc2c[nH]c3ccccc23)NC(=O)[C@H]([C@@H](C)O)NC(=O)[C@@H]2CCCN2C1=O` [Compound P5] (Ac-ACLIPTWGGCGGG[Dap](X1)-NH2; disulfide 2-10), on sortase A (SrtA) [1], half-maximal inhibition (IC50) was put at 1.3 µM. Also, at sortase A (SrtA) [2], the koff (usually the rate constant with which the complex falls apart) was determined as 8.2e-06 s⁻¹; the “koff, times slower than the RMR1-lysine conjugation” value is on record as 4 times; the kon (usually the second-order rate constant of association) was 6.3 M⁻¹ s⁻¹; the “kon, times faster than the RMR1-lysine conjugation” value is reported as around 300 times.
With `CC[C@H](C)[C@@H]1NC(=O)[C@H](CC(C)C)NC(=O)[C@@H](NC(=O)[C@H](C)N)CSSC[C@@H](C(N)=O)NC(=O)CNC(=O)CNC(=O)[C@H](Cc2c[nH]c3ccccc23)NC(=O)[C@H]([C@@H](C)O)NC(=O)[C@@H]2CCCN2C1=O` [Compound W7] (H-ACLIPTWGGC-NH2; disulfide 2-10), it took 17 µM to reach half-maximal inhibition on sortase A (SrtA) [1] (IC50).
As to `CC[C@H](C)[C@@H]1NC(=O)[C@H](CC(C)C)NC(=O)[C@@H](NC(=O)[C@H](C)NC(=O)CNC(=O)CNC(=O)CNC(=O)COc2ccc(C(C)=O)c(B(O)O)c2)CSSC[C@@H](C(N)=O)NC(=O)CNC(=O)CNC(=O)[C@H](Cc2c[nH]c3ccccc23)NC(=O)[C@H]([C@@H](C)O)NC(=O)[C@@H]2CCCN2C1=O` [Compound P7] (X2-GGGACLIPTWGGC-NH2; disulfide 5-13), the IC50 (in general, the concentration needed to halve the response being measured) on sortase A (SrtA) [1] is 4.5 µM.
Same read-out and setting: under `CC[C@H](C)[C@@H]1NC(=O)[C@H](CC(C)C)NC(=O)[C@@H](NC(=O)[C@H](C)NC(=O)CNC(=O)CNC(=O)CNC(=O)c2ccc(B(O)O)c(CNc3ccccc3C=O)c2)CSSC[C@@H](C(N)=O)NC(=O)CNC(=O)CNC(=O)[C@H](Cc2c[nH]c3ccccc23)NC(=O)[C@H]([C@@H](C)O)NC(=O)[C@@H]2CCCN2C1=O` [Compound P8] (X1-GGGACLIPTWGGC-NH2; disulfide 5-13) stands 3.8 µM.
Take `CC[C@H](C)[C@@H]1NC(=O)[C@H](CC(C)C)NC(=O)[C@@H](NC(=O)[C@H](C)N)CSSC[C@@H](C(=O)NCC(=O)NCC(=O)NCC(=O)N[C@@H](CNC(=O)COc2ccc(C(C)=O)c(B(O)O)c2)C(N)=O)NC(=O)CNC(=O)CNC(=O)[C@H](Cc2c[nH]c3ccccc23)NC(=O)[C@H]([C@@H](C)O)NC(=O)[C@@H]2CCCN2C1=O` [Compound P3] (H-ACLIPTWGGCGGG[Dap](X2)-NH2; disulfide 2-10): the IC50 amounted to 4.6 µM against sortase A (SrtA) [1] and 3.7 µM in experiment [3]. The “SrtA binding kinetics in words” value on sortase A (SrtA) [2] was “reached equilibrium instantaneously”. Moreover, in experiment [4], the “inhibition of SrtA-mediated fluorescence labeling after washing” value is given as “marginal reduction”.
